For the assay, the system named is K24384-001-R-PDC complex spheroids, viability. The assay is described as follows: Anticancer human tumor K24384-001-R-PDC patient-derived pancreatic adenocarcinoma cell line growth inhibition [GQUAD]. The note with it: for viability, T/C: stronger effect = lower value. From the text:
DNA G-quadruplex Stabilizer Agents in Combinations in Complex Spheroids
A high-throughput screen of multi-cell type tumor spheroids was designed to identify active combinations of DNA G-quadruplex stabilizer agents and targeted small molecules. Complex spheroids include a stromal component modeled by human endothelial cells (HUVEC) and fibroblasts modeled by human mesenchymal stem cells (MSCs). The concentration ranges selected for each drug and investigational agent were based upon clinically achievable concentrations if the clinical Cmax of the agent was known.
Compounds. The drugs and investigational agents: pidnarulex (CX-5461; NSC782164), APTO-253 (NSC789042), BRACO-19 (NSC847499), peposertib (NSC802822), ceralasertib (NSC780249), elimusertib (NSC800525), camonsertib (NSC841442), AZD-1390 (NSC803789), olaparib (NSC753686), talazoparib (NSC767125), ART-558 (NSC835418), sotorasib (NSC818433), MRTX-1133 (NSC836407), SN-38 (NSC673596), topotecan (NSC609699), etoposide (NSC141540), doxorubicin (NSC123127), gemcitabine (NSC613327), 5-fluorouracil (NSC19893), paclitaxel (NSC125973), vemurafenib (NSC761431), panobinostat (NSC761190), R-306465 (JNJ-16241199; NSC773264), adavosertib (NSC754352), TP-3654 (NSC805149), carboplatin (NSC241240), KSQ-4279 (NSC840948), and staurosporine (NSC755774) were obtained from the National Cancer Institute (NCI) Developmental Therapeutics Program Chemical Repository (34). The FDA-approved anticancer drug set is available from the NCI Developmental Therapeutics Program. […] The stock solutions were prepared in dimethyl sulfoxide (DMSO, Sigma-Aldrich, St. Louis, MO, cat. D2650) at 800-fold the tested concentration and stored at -70 degrees C prior to their use. All drugs and investigational agents were tested over a range starting from a high concentration at or near the clinical Cmax and decreasing in half-log increments. If the clinical Cmax for an agent had not been determined, the highest concentration tested was 10 microM.
2.3 Cell Culture. All cells were maintained in an incubator at 37 degrees C and 5% CO2 with 95% humidity. The PDC lines were cultured according to standard operating procedures established by the NCI PDMR. All PDCs were thawed and cultured in Matrigel-coated flasks prepared with a working solution of 1X Ham's F-12 nutrient mix, without supplementation (Invitrogen, cat. 11765054), 100 U/mL penicillin-streptomycin (Invitrogen, cat. 15140122), and 2.5% Matrigel (Corning Inc., cat. 354248) for the first three passages. The 857933-349-R-J2-PDC line was cultured in 6C/Colon 1B media, which includes advanced DMEM/F-12 (Thermo Fisher Scientific, cat. 12634028), 10 mM HEPES (Thermo Fisher Scientific, cat. 15630080), 1X GlutaMAX supplement (Thermo Fisher Scientific, cat. 35050061), 0.1 mg/mL primocin (InvivoGen, cat. ant-pm-2), 10% defined fetal bovine serum, heat inactivated (HyClone Laboratories Inc., cat. SH30070.03HI), 50% L-WRN conditioned media (ATCC, cat. CRL-3276), 1.25 mM N-Acetyl-L-cysteine (Sigma-Aldrich, cat. A9165), 10 mM nicotinamide (Sigma-Aldrich, cat. N0636), 1X B-27 supplement (Thermo Fisher Scientific, cat. 17504044), 1X N-2 supplement (Thermo Fisher Scientific, cat. 17502048), 10 microM Y-27632 dihydrochloride (Tocris Bioscience, cat. 1254), and 50 ng/mL human EGF recombinant protein (Thermo Fisher Scientific, cat. PHG0311). The 485176-168-R4-J1-PDC line was cultured in Panc media, which includes all 6C/Colon 1B media components plus 100 ng/mL human FGF-10 (Thermo Fisher Scientific, cat. 100-26), 500 nM SB-431542 (Selleckchem, cat. S1067), and gastrin (Tocris, cat. 3006).
[…]

Several values for one entry are separate records, joined by “and”; a condition that tells them apart may be missing. Identical values can stand only once.
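Further: spheroids exposed to compounds for seven days.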

As for `C#Cc1c(F)ccc2cc(O)cc(-c3ncc4c(N5CC6CCC(C5)N6)nc(OCC56CCCN5CC(F)C6)nc4c3F)c12` (configuration not stated), the viability, T/C was 107% and 94.9% and 91.9% (compound 0.0316 µM); 99.2% and 99.3% and 86.2% (compound 0.1 µM); 98.2% and 95.7% and 83.9% (compound 0.316 µM); 74.1% and 52.7% and 53% (compound 1 µM); 35.6% and 35.4% and 33.3% (compound 3.16 µM); 19.8% and 14.8% and 18.1% (compound 10 µM). The IC50 (curve of compound) was 2060 nM and 1350 nM and 1320 nM.
`C=CC(=O)N1CCN(c2nc(=O)n(-c3c(C)ccnc3C(C)C)c3nc(-c4c(O)cccc4F)c(F)cc23)C(C)C1` (configuration not stated): the viability, T/C by setting is: (compound 0.0316 µM) 110% and 115% and 96.6%; (compound 0.1 µM) 95.3% and 80% and 113%; (compound 0.316 µM) 105% and 99.4% and 119%; (compound 1 µM) 91.2% and 103% and 99.1%; (compound 3.16 µM) 104% and 116% and 106%; (compound 10 µM) 93% and 80.7% and 94.2%. Besides, where the note is “curve of compound”, the IC50 is greater than 10000 nM.
Consider `CC(=O)O[C@H]1C(=O)[C@@]2(C)[C@H]([C@H](OC(=O)c3ccccc3)[C@]3(O)C[C@H](OC(=O)[C@H](O)[C@@H](NC(=O)c4ccccc4)c4ccccc4)C(C)=C1C3(C)C)[C@]1(OC(C)=O)CO[C@@H]1C[C@@H]2O`, for which the viability, T/C by setting is: (compound 0.0316 µM) 33.8% and 31.3% and 53.9%; (compound 0.1 µM) 25.3% and 22% and 20.2%; (compound 0.316 µM) 23.4% and 18.5% and 29.6%; (compound 1 µM) 20.5% and 21.1% and 28.1%; (compound 3.16 µM) 25.6% and 20.9% and 26.2%; (compound 10 µM) 28.5% and 28.9% and 37.3%. Where the note is “curve of compound”, the IC50 was less than 31.6 nM.
As to `CC(C)n1c(=O)n(C)c2cnc3cc(F)c(-c4ccc(OCCCN5CCCCC5)nc4)cc3c21`, the viability, T/C was 108% and 84.2% and 93.7% (compound 0.0316 µM); 89% and 95.3% and 95.1% (compound 0.1 µM); 116% and 97.8% and 99.7% (compound 0.316 µM); 120% and 88% and 123% (compound 1 µM); 123% and 107% and 119% (compound 3.16 µM); 92.1% and 80.3% and 90.2% (compound 10 µM). Further, the IC50 (curve of compound) was greater than 10000 nM.
Take `CC1COCCN1c1cc(-c2ccnn2C)c2ccnc(-c3ccn[nH]3)c2n1` (configuration not stated): the viability, T/C reads like this: (compound 0.0316 µM) 85.2% and 75.3% and 76.9%; (compound 0.1 µM) 49.8% and 45% and 54.3%; (compound 0.316 µM) 41.3% and 28.3% and 40.7%; (compound 1 µM) 37.1% and 26.5% and 29.7%; (compound 3.16 µM) 38.4% and 30.4% and 33.3%; (compound 10 µM) 31.8% and 32.7% and 33.8%. Also, under “curve of compound”, the IC50 is 109 nM and 82.7 nM and 141 nM.
As to `CC1COCCN1c1cc(C2(O)CC3CCC(C2)O3)c2cnn(-c3ccn[nH]3)c2n1` (configuration not stated), the viability, T/C was 80.5% and 78% and 64.4% (compound 0.0316 µM); 43.7% and 56.4% and 38.6% (compound 0.1 µM); 40% and 45.8% and 33.4% (compound 0.316 µM); 29.1% and 26.3% and 24.6% (compound 1 µM); 24.8% and 25.7% and 32.5% (compound 3.16 µM); 13.2% and 19% and 15% (compound 10 µM). Further, the IC50 (curve of compound) was 108 nM and 178 nM and 64.2 nM.
For the molecule `CC1COCCN1c1cc(C2(S(C)(=N)=O)CC2)nc(-c2ccnc3[nH]ccc23)n1` (configuration not stated), the viability, T/C by setting is: (compound 0.0316 µM) 92.8% and 89.6% and 108%; (compound 0.1 µM) 96% and 93.6% and 99.5%; (compound 0.316 µM) 107% and 102% and 114%; (compound 1 µM) 65.9% and 56.5% and 74.8%; (compound 3.16 µM) 34.9% and 32.8% and 40%; (compound 10 µM) 33% (2×) and 26.7%. The IC50 (curve of compound) is 1770 nM and 1320 nM and 2110 nM.
Consider `CC[C@@]1(O)C(=O)OCc2c1cc1n(c2=O)Cc2cc3c(CN(C)C)c(O)ccc3nc2-1`, for which the viability, T/C by setting is: (compound 0.000999 µM) 103% and 111% and 108%; (compound 0.00316 µM) 83.2% and 92.2% and 77.5%; (compound 0.00999 µM) 97.7% and 100% and 114%; (compound 0.0316 µM) 82.8% and 82.3% and 80.1%; (compound 0.0999 µM) 66.6% and 50.2% and 63.6%; (compound 0.316 µM) 53% and 58.5% and 51.3%. The IC50 (curve of compound) was greater than 316 nM.
Regarding `CCc1c2c(nc3ccc(O)cc13)-c1cc3c(c(=O)n1C2)COC(=O)[C@]3(O)CC`, the viability, T/C reads like this: (compound 0.000999 µM) 99.6% and 68.6% and 79.3%; (compound 0.00316 µM) 52.9% and 58% and 61.9%; (compound 0.00999 µM) 65.9% and 39.2% and 63.5%; (compound 0.0316 µM) 43.4% and 33% and 29.1%; (compound 0.0999 µM) 27.3% and 38% and 31.1%; (compound 0.316 µM) 24.3% (2×) and 23.9%. Further, the concentration for half-maximal inhibition (IC50) (curve of compound) is 12.8 nM and 4.92 nM and 15.7 nM.
Regarding `CN(C)c1ccc(Nc2c3ccc(NC(=O)CCN4CCCC4)cc3nc3cc(NC(=O)CCN4CCCC4)ccc23)cc1`, the viability, T/C was 101% [middle of 12 runs] (compound 0.0316 µM), 100% [middle of 12 runs] (compound 0.1 µM) and 101% [middle of 12 runs] (compound 0.316 µM). The IC50 (compound alone, run of 02/26/2024) is greater than 10000 nM.

By viability, T/C is commonly meant the ratio of treated to control. The IC50 is the concentration that gives 50% inhibition.

(Values after PubChem BioAssay AID2060483 (Molecular Pharmacology Branch, DTP, NCI, 2025).)
